Data on eleven molecules can be found in patent US9315463B2, “Cyclohexylamine derivatives having β2 adrenergic agonist and M3 muscarinic antagonist activities” (Almirall, S.A., priority 2010, dated 2016).

Assay [1] deals with human muscarinic M3 receptor (Homo sapiens (Human), UniProt P20309). The assay is described as follows: Human muscarinic M3 receptor binding assay ([3H]-NMS, CHO-K1 membranes). Here is the method: Test 2: Human Muscarinic M1, M2, M3, M4 and M5Receptors Binding Assays
The study of binding to human muscarinic M1, M2, M3, M4 and M5 receptors was performed using commercial membranes (Perkin Elmer) prepared from CHO-K1 cells. Radioligand binding experiments were conducted in 96 polypropylene well plates in a total volume of 200 μl. All reagents were dissolved in assay binding buffer (PBS with calcium and magnesium, SIGMA), except compounds that were dissolved in DMSO 100%. Non-specific binding (NSB) was measured in the presence of 1 μM atropine. [3H]-NMS was used as the radioligand at a concentration of 1 nM for M2, M3 and M5 and 0.3 nM for M1 and M4. [3H]-NMS and antagonists were incubated with membranes that express human muscarinic receptors M1, M2, M3, M4 and M5 at concentrations of 8.1, 10, 4.9, 4.5 and 4.9 μg/well, respectively.
After an incubation period of two hours with gentle shaking, 150 μl of the reaction mix were transferred to 96 GF/C filter plates (Millipore), previously treated with wash buffer (Tris 50 mM; NaCl 100 mM; pH: 7.4), containing 0.05% PEI (Sigma) during one hour. Bound and free [3H]-NMS were separated by rapid vacuum filtration in a manifold from Millipore and washed four times with ice cold wash buffer. After drying 30 min, 30 μl of OPTIPHASE Supermix were added to each well and radioactivity quantified using a Microbeta microplate scintillation counter.
The affinity of each test compound to the receptors was determined by using ten different concentrations ran in duplicate. IC50s were calculated using Activity Base software from IDBS and the four parameters-log equation.

In assay [2] the target is human adrenergic beta2 receptor (Homo sapiens (Human), UniProt P07550). The assay is described as follows: Human adrenergic β2 receptor binding assay (3H-CGP12177, Sf9 membranes). The protocol: Test 1: Human Adrenergic β1 and β2 Receptor Binding Assays
Sequence of human adrenergic beta2 receptor (P07550 whole entry): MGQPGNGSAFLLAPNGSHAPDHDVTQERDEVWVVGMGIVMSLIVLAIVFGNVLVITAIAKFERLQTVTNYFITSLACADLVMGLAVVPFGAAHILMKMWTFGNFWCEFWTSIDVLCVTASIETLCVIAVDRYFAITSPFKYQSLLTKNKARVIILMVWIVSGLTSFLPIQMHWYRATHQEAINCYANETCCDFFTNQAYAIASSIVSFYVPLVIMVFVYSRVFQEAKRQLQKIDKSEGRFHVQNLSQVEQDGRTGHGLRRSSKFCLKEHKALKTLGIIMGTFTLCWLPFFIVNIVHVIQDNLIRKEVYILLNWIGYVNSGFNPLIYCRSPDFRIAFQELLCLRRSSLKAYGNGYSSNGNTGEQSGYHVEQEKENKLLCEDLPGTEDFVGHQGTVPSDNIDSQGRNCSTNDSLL
The study of binding to human adrenergic beta1 and beta2 receptors was performed using commercial membranes prepared from Sf9 cells where they are overexpressed (Perkin Elmer). The membrane suspensions (16 μg/well for beta1 and 5 μg/well for beta2) in assay buffer (75 mM Tris/HCl with 12.5 mM MgCl2 and 2 mM EDTA pH=7.4) were incubated with 0.14 or 0.6 nM of 3H-CGP12177 (Amersham) for beta 1 and beta 2 receptors respectively in a final volume of 250 μl, in GFC Multiscreen 96 well plates (Millipore) previously treated with assay buffer containing 0.3% PEI (Sigma). Non specific binding was measured in the presence of 1 μM propanolol. Incubation was maintained for 60 minutes at room temperature and with gentle shaking. The binding reactions were terminated by filtration and washing with 2.5 volumes of Tris/HCl 50 mM pH=7.4. The affinity of each test compound to the receptor was determined by using ten different concentrations ran in duplicate. IC50s were calculated using Activity Base software from IDBS and the four parameters-log equation.

Setting [3] is: [3H]-NMS displacement, read-out: Binding IC50, nM M3.
Setting [4] is: 3H-CGP12177 displacement, read-out: Binding IC50, nM β2.

Read-outs that look alike come from different tables or passages of the source.

Sequence of human muscarinic M3 receptor (P20309 whole entry): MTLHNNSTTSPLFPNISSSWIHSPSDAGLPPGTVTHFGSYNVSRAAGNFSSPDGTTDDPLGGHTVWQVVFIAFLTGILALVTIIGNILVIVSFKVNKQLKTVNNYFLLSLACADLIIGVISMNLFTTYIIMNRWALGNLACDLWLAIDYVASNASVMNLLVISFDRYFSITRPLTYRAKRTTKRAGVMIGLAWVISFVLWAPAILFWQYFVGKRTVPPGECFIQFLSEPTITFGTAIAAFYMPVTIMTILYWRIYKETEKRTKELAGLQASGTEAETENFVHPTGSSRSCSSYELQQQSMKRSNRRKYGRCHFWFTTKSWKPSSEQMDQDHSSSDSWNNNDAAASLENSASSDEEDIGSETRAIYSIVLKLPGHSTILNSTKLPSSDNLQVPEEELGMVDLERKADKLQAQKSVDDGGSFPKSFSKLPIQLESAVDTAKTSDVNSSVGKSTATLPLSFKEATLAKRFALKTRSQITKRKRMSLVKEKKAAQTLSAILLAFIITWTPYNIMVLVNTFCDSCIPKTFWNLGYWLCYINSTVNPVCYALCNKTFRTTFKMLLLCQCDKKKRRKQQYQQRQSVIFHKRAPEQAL

The term IC50 denotes the midpoint of a concentration-inhibition curve. Regarding `CN(CCCCCCCCCNC[C@H](O)c1ccc(O)c2[nH]c(=O)ccc12)C1CCC(OC(=O)C(O)(c2cccs2)c2cccs2)CC1` (stereo partly drawn) [Example 1, trans-4-[(9-{[(2R)-2-hydroxy-2-(8-hydroxy-2-oxo-1,2-dihydroquinolin-5-yl)ethyl]-amino}nonyl)(methyl)amino]cyclohexyl hydroxy(di-2-thienyl)acetate formiate (2:1)], the IC50 was found to be 0.2 nM in assay [1] (read-out: Binding IC50, nM M3, [3H]-NMS displacement) and 6.4 nM in assay [2] (read-out: Binding IC50, nM β2, 3H-CGP12177 displacement).
Turning to `COc1cc(NC(=O)OCCN(C)[C@H]2CC[C@H](OC(=O)[C@](O)(c3cccs3)C3CCCC3)CC2)c(Cl)cc1CNC[C@H](O)c1ccc(O)c2[nH]c(=O)ccc12` [Example 29, trans-4-[{2-[({[2-chloro-4-({[(2R)-2-hydroxy-2-(8-hydroxy-2-oxo-1,2-dihydroquinolin-5-yl)ethyl]amino}methyl)-5-methoxyphenyl]amino}carbonyl)-oxy]ethyl}(methyl)amino]cyclohexyl (2S)-cyclopentyl(hydroxy)-2-thienylacetate], the figures for the half-maximal inhibitory concentration (IC50) in assay [1] (setting [3]) and in assay [2] (setting [4]) were 3.8 nM and 1.1 nM, respectively.
In the case of `COc1cc(NC(=O)CCN(C)[C@H]2CC[C@H](OC(=O)C(O)(c3cccs3)c3cccs3)CC2)c(F)cc1CNC[C@H](O)c1ccc(O)c2[nH]c(=O)ccc12` [Example 16, trans-4-[(3-{[2-fluoro-4-({[(2R)-2-hydroxy-2-(8-hydroxy-2-oxo-1,2-dihydroquinolin-5-yl)ethyl]amino}methyl)-5-methoxyphenyl]amino}-3-oxopropyl)(methyl)amino]-cyclohexyl hydroxy(di-2-thienyl)acetate], the IC50 in assay [1] (setting [3]) was determined as 2 nM; in assay [2] (setting [4]), 4.8 nM.
For `COc1cc(NC(=O)OCCN(C)[C@H]2CC[C@H](OC(=O)C(O)(c3cccs3)c3cccs3)CC2)c(C#N)cc1CNC[C@H](O)c1ccc(O)c2[nH]c(=O)ccc12` [Example 22, trans-4-[{2-[({[2-cyano-4-({[(2R)-2-hydroxy-2-(8-hydroxy-2-oxo-1,2-dihydroquinolin-5-yl)ethyl]amino}methyl)-5-methoxyphenyl]amino}carbonyl)-oxy]ethyl}(methyl)amino]cyclohexyl hydroxy(di-2-thienyl)acetate hydrofluoride (1:2)] the same measures were 1.4 nM and 4.5 nM.
For `COc1cc(NC(=O)CCN(C)[C@H]2CC[C@H](OC(=O)C(O)(c3cccs3)c3cccs3)CC2)c(Cl)cc1CCNC[C@H](O)c1ccc(O)c2[nH]c(=O)ccc12` [Example 20, trans-4-[(3-{[2-chloro-4-(2-{[(2R)-2-hydroxy-2-(8-hydroxy-2-oxo-1,2-dihydroquinolin-5-yl)ethyl]amino}ethyl)-5-methoxyphenyl]amino}-3-oxopropyl)-(methyl)amino]cyclohexyl hydroxy(di-2-thienyl)acetate hydrofluoride (1:2)] the same measures were 0.7 nM and 5.3 nM.
With `CN(CCC(=O)Nc1cc(F)c(CNC[C@H](O)c2ccc(O)c3[nH]c(=O)ccc23)cc1F)[C@H]1CC[C@H](OC(=O)C(O)(c2cccs2)c2cccs2)CC1` [Example 18, trans-4-[(3-{[2,5-difluoro-4-({[(2R)-2-hydroxy-2-(8-hydroxy-2-oxo-1,2-dihydroquinolin-5-yl)ethyl]amino}methyl)phenyl]amino}-3-oxopropyl)-(methyl)amino]cyclohexyl hydroxy(di-2-thienyl)acetate hydrofluoride (1:2)], the IC50 is 1.6 nM in assay [1] (setting [3]) and 13 nM in assay [2] (setting [4]).
Regarding `COc1cc(NC(=O)OCCN(C)[C@H]2CC[C@H](OC(=O)[C@](O)(c3ccccc3)C3CCCC3)CC2)c(Cl)cc1CNC[C@H](O)c1ccc(O)c2[nH]c(=O)ccc12` [Example 28, trans-4-[{2-[({[2-chloro-4-({[(2R)-2-hydroxy-2-(8-hydroxy-2-oxo-1,2-dihydroquinolin-5-yl)ethyl]amino}methyl)-5-methoxyphenyl]amino}carbonyl)oxy]ethyl}-(methyl)amino]cyclohexyl (2R)-cyclopentyl (hydroxy)phenylacetate], the IC50 in assay [1] (setting [3]) was found to be 8.5 nM; in assay [2] (setting [4]), 1.3 nM.
For `COc1cc(NC(=O)OCCN(C)[C@H]2CC[C@H](OC(=O)C(O)(c3cccs3)c3cccs3)CC2)c(Cl)cc1CNC[C@H](O)c1ccc(O)c2c1OCC(=O)N2` [Example 26, trans-4-[{2-[({[2-chloro-4-({[(2R)-2-hydroxy-2-(5-hydroxy-3-oxo-3,4-dihydro-2H-1,4-benzoxazin-8-yl)ethyl]amino}methyl)-5-methoxyphenyl]amino}carbonyl)-oxy]ethyl}(methyl)amino]cyclohexyl hydroxy(di-2-thienyl)acetate] the same measures were 1.7 nM and 0.38 nM.
For `COc1cc(NC(=O)OCCN(C)[C@H]2CC[C@H](OC(=O)C(O)(c3cccs3)c3cccs3)CC2)c(Cl)cc1CNC[C@H](O)c1ccc(O)c2[nH]c(=O)ccc12` [Example 12, trans-4-[{2-[({[2-chloro-4-({[(2R)-2-hydroxy-2-(8-hydroxy-2-oxo-1,2-dihydroquinolin-5-yl)ethyl]amino}methyl)-5-methoxyphenyl]amino}carbonyl)oxy]ethyl}-(methyl)amino]cyclohexyl hydroxy(di-2-thienyl)acetate hydrofluoride] the same measures were 1.6 nM and 1.6 nM.
Regarding `COc1cc(OCCCCN(C)[C@H]2CC[C@H](OC(=O)C(O)(c3cccs3)c3cccs3)CC2)c(Cl)cc1CNC[C@H](O)c1ccc(O)c2[nH]c(=O)ccc12` [Example 25, trans-4-[{4-[2-chloro-4-({[(2R)-2-hydroxy-2-(8-hydroxy-2-oxo-1,2-dihydroquinolin-5-yl)ethyl]amino}methyl)-5-methoxyphenoxy]butyl}(methyl)amino]cyclohexyl hydroxy(di-2-thienyl)acetate hydrofluoride (1:2)], the IC50 in assay [1] (setting [3]) worked out at 0.3 nM; in assay [2] (setting [4]) it was 9.6 nM.
For `COc1cc(NC(=O)CCN(C)[C@H]2CC[C@](C)(OC(=O)C(O)(c3cccs3)c3cccs3)CC2)c(Cl)cc1CNC[C@H](O)c1ccc(O)c2[nH]c(=O)ccc12` [Example 13, trans-4-[(3-{[2-chloro-4-({[(2R)-2-hydroxy-2-(8-hydroxy-2-oxo-1,2-dihydroquinolin-5-yl)ethyl]amino}methyl)-5-methoxyphenyl]amino}-3-oxopropyl)(methyl)amino]-1-methylcyclohexyl hydroxy(di-2-thienyl)acetate], the 50% inhibitory concentration (IC50) is 2.1 nM in assay [1] (setting [3]) and 2.2 nM in assay [2] (setting [4]).
